Data reported in ChEMBL document CHEMBL5518215, “Unlocking Antibacterial Potential: Key-Site-Based Regulation of Antibacterial Spectrum of Peptides” (J Med Chem, 2024).

Columns and labels:
Escherichia coli [1] = test: Antimicrobial activity against Escherichia coli 25922 assessed as absence bacterial growth measured after 18 to 24 hrs incubation by NCCLS method; type: functional; settings: time 18-24 hrs
Escherichia coli [2] = test: Antimicrobial activity against Escherichia coli K88 assessed as absence bacterial growth measured after 18 to 24 hrs incubation by NCCLS method; type: functional; settings: time 18-24 hrs
Salmonella typhimurium [3] = test: Antimicrobial activity against Salmonella typhimurium 14028 assessed as absence bacterial growth measured after 18 to 24 hrs incubation by NCCLS method; type: functional, Salmonella enterica subsp. enterica serovar Typhimurium; settings: Salmonella enterica, time 18-24 hrs
[4] = Antimicrobial activity against Salmonella pullorum C7913 assessed as absence bacterial growth measured after 18 to 24 hrs incubation by NCCLS method; type: functional, Salmonella enterica subsp. enterica serovar Pullorum; settings: Salmonella enterica, time 18-24 hrs
Pseudomonas aeruginosa [5] = test: Antimicrobial activity against Pseudomonas aeruginosa 27853 assessed as absence bacterial growth measured after 18 to 24 hrs incubation by NCCLS method; type: functional; settings: time 18-24 hrs
Acinetobacter baumannii [6] = test: Antimicrobial activity against Acinetobacter baumannii 1.6769 assessed as absence bacterial growth measured after 18 to 24 hrs incubation by NCCLS method; type: functional; settings: time 18-24 hrs
Enterococcus faecalis [7] = test: Antimicrobial activity against Enterococcus faecalis 29212 assessed as absence bacterial growth measured after 18 to 24 hrs incubation by NCCLS method; type: functional; settings: time 18-24 hrs
Listeria monocytogenes [8] = test: Antimicrobial activity against Listeria monocytogenes 1.10753 assessed as absence bacterial growth measured after 18 to 24 hrs incubation by NCCLS method; type: functional; settings: time 18-24 hrs
Bacillus cereus [9] = test: Antimicrobial activity against Bacillus cereus 1.932 assessed as absence bacterial growth measured after 18 to 24 hrs incubation by NCCLS method; type: functional; settings: time 18-24 hrs
Staphylococcus aureus [10] = test: Antimicrobial activity against Staphylococcus aureus 29213 assessed as absence bacterial growth measured after 18 to 24 hrs incubation by NCCLS method; type: functional; settings: time 18-24 hrs
Staphylococcus aureus [11] = test: Antimicrobial activity against Methicillin-resistant Staphylococcus aureus 43300 assessed as absence bacterial growth measured after 18 to 24 hrs incubation by NCCLS method; type: functional; settings: time 18-24 hrs
[12] = test system: Staphylococcus epidermidis; test: Antimicrobial activity against Staphylococcus epidermidis 12228 assessed as absence bacterial growth measured after 18 to 24 hrs incubation by NCCLS method; type: functional; settings: time 18-24 hrs
Staphylococcus aureus [13] = test: Antimicrobial activity against Staphylococcus aureus 29213 assessed as absence bacterial growth measured after 18 to 24 hrs incubation by NCCLS m; type: functional; settings: time 18-24 hrs
Escherichia coli [14] = test: Antimicrobial activity against Escherichia coli 25922 assessed as bacterial killing measured after 16 hrs incubation; type: functional
Escherichia coli [15] = test: Antimicrobial activity against Escherichia coli K88 assessed as bacterial killing measured after 16 hrs incubation; type: functional
Salmonella typhimurium [16] = test: Antimicrobial activity against Salmonella typhimurium 14028 assessed as bacterial killing measured after 16 hrs incubation; type: functional, Salmonella enterica subsp. enterica serovar Typhimurium; settings: Salmonella enterica
Salmonella typhimurium [17] = test: Antimicrobial activity against Salmonella typhimurium C7731 assessed as bacterial killing measured after 16 hrs incubation; type: functional, Salmonella enterica subsp. enterica serovar Typhimurium; settings: Salmonella enterica
[18] = Antimicrobial activity against Salmonella pullorum C7913 assessed as bacterial killing measured after 16 hrs incubation; type: functional, Salmonella enterica subsp. enterica serovar Pullorum; settings: Salmonella enterica
Pseudomonas aeruginosa [19] = test: Antimicrobial activity against Pseudomonas aeruginosa 27853 assessed as bacterial killing measured after 16 hrs incubation; type: functional
Acinetobacter baumannii [20] = test: Antimicrobial activity against Acinetobacter baumannii 1.6769 assessed as bacterial killing measured after 16 hrs incubation; type: functional
Enterococcus faecalis [21] = test: Antimicrobial activity against Enterococcus faecalis 29212 assessed as bacterial killing measured after 16 hrs incubation; type: functional
Listeria monocytogenes [22] = test: Antimicrobial activity against Listeria monocytogenes 1.10753 assessed as bacterial killing measured after 16 hrs incubation; type: functional
Bacillus cereus [23] = test: Antimicrobial activity against Bacillus cereus 1.932 assessed as bacterial killing measured after 16 hrs incubation; type: functional
Staphylococcus aureus [24] = test: Antimicrobial activity against Staphylococcus aureus 29213 assessed as bacterial killing measured after 16 hrs incubation; type: functional
Staphylococcus aureus [25] = test: Antimicrobial activity against Methicillin-resistant Staphylococcus aureus 43300 assessed as bacterial killing measured after 16 hrs incubation; type: functional
[26] = test system: Staphylococcus epidermidis; test: Antimicrobial activity against Staphylococcus epidermidis 12228 assessed as bacterial killing measured after 16 hrs incubation; type: functional
Staphylococcus aureus [27] = test: Antimicrobial activity against Staphylococcus aureus 25923 assessed as bacterial killing measured after 16 hrs incubation; type: functional
Salmonella typhimurium [28] = test: Antimicrobial activity against Salmonella typhimurium C7731 assessed as absence bacterial growth measured after 18 to 24 hrs incubation by NCCLS method; type: functional, Salmonella enterica subsp. enterica serovar Typhimurium; settings: Salmonella enterica, time 18-24 hrs
Escherichia coli [29] = test: Antimicrobial activity against Escherichia coli 25922 assessed as absence bacterial growth measured after 18 to 24 hrs incubation in presence of 50% serum by NCCLS method; type: functional; settings: time 18-24 hrs
Escherichia coli [30] = test: Antimicrobial activity against Escherichia coli 25922 assessed as absence bacterial growth measured after 18 to 24 hrs incubation in presence of 25% serum by NCCLS method; type: functional; settings: time 18-24 hrs
Escherichia coli [31] = test: Antimicrobial activity against Escherichia coli 25922 assessed as absence bacterial growth measured after 18 to 24 hrs incubation in presence of 12.5% serum by NCCLS method; type: functional; settings: time 18-24 hrs
[32] = Hemolytic activity in human RBC at effective concentration at 128 uM measured after 1 hr by microplate reader relative to control; type: toxicity, cell-based, Erythrocyte; settings: human red blood cells (erythrocytes), read-out: Activity
Escherichia coli [33] = test: Antimicrobial activity against Escherichia coli 25922 assessed as absence bacterial growth measured after 18 to 24 hrs incubation in presence of NaCl by NCCLS method; type: functional; settings: time 18-24 hrs
Escherichia coli [34] = test: Antimicrobial activity against Escherichia coli 25922 assessed as absence bacterial growth measured after 18 to 24 hrs incubation in presence of KCl by NCCLS method; type: functional; settings: time 18-24 hrs
Escherichia coli [35] = test: Antimicrobial activity against Escherichia coli 25922 assessed as absence bacterial growth measured after 18 to 24 hrs incubation in presence of NH4Cl by NCCLS method; type: functional; settings: time 18-24 hrs
Escherichia coli [36] = test: Antimicrobial activity against Escherichia coli 25922 assessed as absence bacterial growth measured after 18 to 24 hrs incubation in presence of MgCl2 by NCCLS method; type: functional; settings: time 18-24 hrs
Escherichia coli [37] = test: Antimicrobial activity against Escherichia coli 25922 assessed as absence bacterial growth measured after 18 to 24 hrs incubation in presence of ZnCl2 by NCCLS method; type: functional; settings: time 18-24 hrs
Escherichia coli [38] = test: Antimicrobial activity against Escherichia coli 25922 assessed as absence bacterial growth measured after 18 to 24 hrs incubation in presence of FeCl3 by NCCLS method; type: functional; settings: time 18-24 hrs
[39] = Cytotoxicity against human HEK-293T cells assessed as cell survival rate at 64 uM measured after 8 hrs by MTT assay relative to control; type: toxicity, cell-based; settings: read-out: Activity
[40] = Cytotoxicity against porcine IPEC-J2 cells assessed as cell survival rate at 64 uM measured after 8 hrs by MTT assay relative to control; type: toxicity, cell-based, Sus scrofa; settings: pig, read-out: Activity
Erythrocyte = test: Hemolytic activity in human RBC at effective concentration measured after 1 hr by microplate reader analysis; type: toxicity, cell-based
[41] = Cytotoxicity against mouse RAW264.7 cells assessed as cell survival rate measured after 8 hrs by MTT assay; type: toxicity, cell-based
[42] = Cytotoxicity against human HEK-293T cells assessed as cell survival rate measured after 8 hrs by MTT assay; type: toxicity, cell-based
[43] = Cytotoxicity against porcine IPEC-J2 cells assessed as cell survival rate measured after 8 hrs by MTT assay; type: toxicity, cell-based, Sus scrofa; settings: pig

## H-GKLWLKGGKLWLKGGKLWLKA-NH2
Escherichia coli [1]
  MIC: 2 µM
Escherichia coli [2]
  MIC: 0.5 µM
Salmonella typhimurium [3]
  MIC: 2 µM
[4]
  MIC: 2 µM
Pseudomonas aeruginosa [5]
  MIC: 4 µM
Acinetobacter baumannii [6]
  MIC: 4 µM
Enterococcus faecalis [7]
  MIC: 16 µM
Listeria monocytogenes [8]
  MIC: > 32 µM
Bacillus cereus [9]
  MIC: > 32 µM
Staphylococcus aureus [10]
  MIC: 16 µM
Staphylococcus aureus [11]
  MIC: 8 µM
[12]
  MIC: 8 µM
Staphylococcus aureus [13]
  MIC: > 32 µM
Escherichia coli [14]
  MBC: 4 µM
Escherichia coli [15]
  MBC: 0.5 µM
Salmonella typhimurium [16]
  MBC: 8 µM
Salmonella typhimurium [17]
  MBC: 8 µM
[18]
  MBC: 4 µM
Pseudomonas aeruginosa [19]
  MBC: 4 µM
Acinetobacter baumannii [20]
  MBC: 4 µM
Enterococcus faecalis [21]
  MBC: 16 µM
Listeria monocytogenes [22]
  MBC: > 32 µM
Bacillus cereus [23]
  MBC: > 32 µM
Staphylococcus aureus [24]
  MBC: 32 µM
Staphylococcus aureus [25]
  MBC: 8 µM
[26]
  MBC: 8 µM
Staphylococcus aureus [27]
  MBC: > 32 µM
Salmonella typhimurium [28]
  MIC: 4 µM
Escherichia coli [29]
  MIC: > 32 µM
Escherichia coli [30]
  MIC: > 32 µM
Escherichia coli [31]
  MIC: 32 µM
[32]
  hemolysis at 1 h, 128 µM: < 10%
Escherichia coli [33]
  MIC: 32 µM
Escherichia coli [34]
  MIC: 2 µM
Escherichia coli [35]
  MIC: 2 µM
Escherichia coli [36]
  MIC: 8 µM
Escherichia coli [37]
  MIC: 2 µM
Escherichia coli [38]
  MIC: 2 µM
[39]
  viability at 8 h, 64 µM: > 80%
[40]
  viability at 8 h, 64 µM: > 80%
Erythrocyte
  HC10: > 128 µM
[41]
  IC50 at 8 h: > 64 µM
[42]
  IC50 at 8 h: > 64 µM
[43]
  IC50 at 8 h: > 64 µM

## H-GKLWLKGGKLWLKGGKLWLKG-NH2
Escherichia coli [1]
  MIC: 4 µM
Escherichia coli [2]
  MIC: 1 µM
Salmonella typhimurium [3]
  MIC: 2 µM
[4]
  MIC: 1 µM
Pseudomonas aeruginosa [5]
  MIC: 8 µM
Acinetobacter baumannii [6]
  MIC: 8 µM
Enterococcus faecalis [7]
  MIC: > 32 µM
Listeria monocytogenes [8]
  MIC: > 32 µM
Bacillus cereus [9]
  MIC: > 32 µM
Staphylococcus aureus [10]
  MIC: > 32 µM
Staphylococcus aureus [11]
  MIC: > 32 µM
[12]
  MIC: > 32 µM
Staphylococcus aureus [13]
  MIC: > 32 µM
Escherichia coli [14]
  MBC: 8 µM
Escherichia coli [15]
  MBC: 2 µM
Salmonella typhimurium [16]
  MBC: 4 µM
Salmonella typhimurium [17]
  MBC: 8 µM
[18]
  MBC: 2 µM
Pseudomonas aeruginosa [19]
  MBC: 16 µM
Acinetobacter baumannii [20]
  MBC: 8 µM
Enterococcus faecalis [21]
  MBC: > 32 µM
Listeria monocytogenes [22]
  MBC: > 32 µM
Bacillus cereus [23]
  MBC: > 32 µM
Staphylococcus aureus [24]
  MBC: > 32 µM
Staphylococcus aureus [25]
  MBC: > 32 µM
[26]
  MBC: > 32 µM
Staphylococcus aureus [27]
  MBC: > 32 µM
Salmonella typhimurium [28]
  MIC: 4 µM
Escherichia coli [29]
  MIC: > 32 µM
Escherichia coli [30]
  MIC: > 32 µM
Escherichia coli [31]
  MIC: > 32 µM
[32]
  hemolysis at 1 h, 128 µM: < 10%
Escherichia coli [33]
  MIC: > 32 µM
Escherichia coli [34]
  MIC: 4 µM
Escherichia coli [35]
  MIC: 4 µM
Escherichia coli [36]
  MIC: 16 µM
Escherichia coli [37]
  MIC: 4 µM
Escherichia coli [38]
  MIC: 4 µM
[39]
  viability at 8 h, 64 µM: > 80%
[40]
  viability at 8 h, 64 µM: > 80%
Erythrocyte
  HC10: > 128 µM
[41]
  IC50 at 8 h: > 64 µM
[42]
  IC50 at 8 h: > 64 µM
[43]
  IC50 at 8 h: > 64 µM

## H-WKLWLKGGKLWLKGGKLWLKG-NH2
Escherichia coli [1]
  MIC: 4 µM
Escherichia coli [2]
  MIC: 1 µM
Salmonella typhimurium [3]
  MIC: 4 µM
[4]
  MIC: 1 µM
Pseudomonas aeruginosa [5]
  MIC: 8 µM
Acinetobacter baumannii [6]
  MIC: 4 µM
Enterococcus faecalis [7]
  MIC: > 32 µM
Listeria monocytogenes [8]
  MIC: > 32 µM
Bacillus cereus [9]
  MIC: > 32 µM
Staphylococcus aureus [10]
  MIC: > 32 µM
Staphylococcus aureus [11]
  MIC: 8 µM
[12]
  MIC: 16 µM
Staphylococcus aureus [13]
  MIC: > 32 µM
Escherichia coli [14]
  MBC: 4 µM
Escherichia coli [15]
  MBC: 1 µM
Salmonella typhimurium [16]
  MBC: 8 µM
Salmonella typhimurium [17]
  MBC: 32 µM
[18]
  MBC: 2 µM
Pseudomonas aeruginosa [19]
  MBC: 16 µM
Acinetobacter baumannii [20]
  MBC: 4 µM
Enterococcus faecalis [21]
  MBC: > 32 µM
Listeria monocytogenes [22]
  MBC: > 32 µM
Bacillus cereus [23]
  MBC: > 32 µM
Staphylococcus aureus [24]
  MBC: 8 µM
Staphylococcus aureus [25]
  MBC: > 32 µM
[26]
  MBC: > 32 µM
Staphylococcus aureus [27]
  MBC: > 32 µM
Salmonella typhimurium [28]
  MIC: 4 µM
Escherichia coli [29]
  MIC: > 32 µM
Escherichia coli [30]
  MIC: > 32 µM
Escherichia coli [31]
  MIC: > 32 µM
[32]
  hemolysis at 1 h, 128 µM: < 10%
Escherichia coli [33]
  MIC: 16 µM
Escherichia coli [34]
  MIC: 8 µM
Escherichia coli [35]
  MIC: 8 µM
Escherichia coli [36]
  MIC: > 32 µM
Escherichia coli [37]
  MIC: 4 µM
Escherichia coli [38]
  MIC: 4 µM
Erythrocyte
  HC10: 128 µM
[41]
  IC50 at 8 h: > 64 µM
[42]
  IC50 at 8 h: > 64 µM
[43]
  IC50 at 8 h: 12.9 µM
